Test results published in ChEMBL document CHEMBL5053548, “Subphthalocyanines as Efficient Photosensitizers with Nanomolar Photodynamic Activity against Cancer Cells” (J Med Chem, 2021).
The source made the active and inactive calls. No cut-off for these calls is given here.

Legend:
[1] = Phototoxicity against human SK-MEL-28 cells assessed as reduction in cell viability preincubated for 12 hrs followed by 15 mins of light irradiation and measured after 24 hrs by neutral red uptake assay; assay type: functional, cell-based; settings: SK-MEL-28, light or radiation study
[2] = Drug uptake in human HeLa cells assessed per mg protein measured upto 12 hrs by spectrofluorometric method; assay type: ADME, cell-based
[3] = Drug uptake in human SK-MEL-28 cells assessed per mg protein measured upto 12 hrs by spectrofluorometric method; assay type: ADME, cell-based; settings: sk-mel-28, 12 h
[4] = Absorption maximum of the compound in EtOH; assay type: physicochemical
[5] = Induction of singlet oxygen generation in EtOH assessed as singlet oxygen quantum yield; assay type: functional
[6] = Fluorescence property of compound in THF assessed as life time; assay type: physicochemical
[7] = Absorption property of the compound in THF assessed as extinction coefficient; assay type: physicochemical
[8] = Drug localization in adiposome of human HeLa cells at 1 uM after 12 hrs by confocal microscopy analysis; assay type: ADME, subcellular
[9] = Dark toxicity against human HeLa cells assessed as reduction in cell viability incubated for 24 hrs by neutral red uptake assay; assay type: cell-based; settings: read-out: TC50
[10] = Emission maximum of the compound in THF; assay type: physicochemical
[11] = test system: SK-MEL-28; assay: Induction of apoptosis in human SK-MEL-28 cells at EC50 concentration preincubated for 12 hrs followed by 15 mins light irradiation and measured every 15 mins for 48 hrs by real time-glo Annexin V assay; assay type: functional, cell-based; settings: time 3615.0 min
[12] = Selectivity index, ratio of TC50 for human HeLa cells to EC50 for human HeLa cells
[13] = Absorption maximum of the compound in THF; assay type: physicochemical
[14] = Induction of singlet oxygen generation in THF assessed as singlet oxygen quantum yield; assay type: functional
[15] = Fluorescence property of compound in THF assessed as quantum yield; assay type: physicochemical
[16] = Drug localization in adiposome of human SK-MEL-28 cells at 1 uM after 12 hrs by confocal microscopy analysis; assay type: ADME, subcellular; settings: sk-mel-28, 12 h
[17] = Phototoxicity against human HeLa cells assessed as reduction in cell viability preincubated for 12 hrs followed by 15 mins of light irradiation and measured after 24 hrs by neutral red uptake assay; assay type: functional, cell-based; settings: light or radiation study
[18] = Selectivity index, ratio of TC50 for human SK-MEL-28 cells to EC50 for human SK-MEL-28 cells
[19] = Dark toxicity against human SK-MEL-28 cells assessed as reduction in cell viability incubated for 24 hrs by neutral red uptake assay; assay type: cell-based; settings: read-out: TC50
[20] = Fluorescence property of compound in EtOH assessed as quantum yield; assay type: physicochemical
[21] = test system: HeLa; assay: Potency index, ratio of temo-porfin EC50 to test compound EC50 for phototoxicity against human HeLa cells; assay type: functional
[22] = n-Octanol/PBS partition coefficient, logP of the compound at pH 7.4 at 100 uM after 5 mins; assay type: physicochemical
[23] = test system: HeLa; assay: Potency index, ratio of PpXI EC50 to test compound EC50 for phototoxicity against human HeLa cells; assay type: functional
[24] = test system: HeLa; assay: Potency index, ratio of S3AlOHPc EC50 to test compound EC50 for phototoxicity against human HeLa cells; assay type: functional
[25] = Drug localization in endo-lysosome of human HeLa cells at 1 uM after 12 hrs by confocal microscopy analysis; assay type: ADME, subcellular
[26] = Drug localization in endo-lysosome of human SK-MEL-28 cells at 1 uM after 12 hrs by confocal microscopy analysis; assay type: ADME, subcellular; settings: sk-mel-28, 12 h
[27] = Absorption maximum of the compound in MeOH; assay type: physicochemical
[28] = Induction of singlet oxygen generation in MeOH assessed as singlet oxygen quantum yield; assay type: functional
[29] = Fluorescence property of compound in MeOH assessed as life time; assay type: physicochemical
[30] = Fluorescence property of compound in MeOH assessed as quantum yield; assay type: physicochemical
[31] = Fluorescence property of compound in acetone assessed as quantum yield; assay type: physicochemical

Structure (SMILES)	EC50 [1]	Drug uptake [2]	Drug uptake [3]	Activity [4]	Activity [5]	Activity [6]	Activity [7]	Drug uptake [8]	CC50 at 24 h [9]	Activity [10]	Activity [11]	Selectivity Index [12]	Activity [13]	Activity [14]	Activity [15]	EC50 [17]	Selectivity Index [18]	CC50 at 24 h [19]	Activity [20]	logD at 5 min, 100 µM [22]	also measured
Ic1ccc2c(c1)C1=[N+]3C2=Nc2c4ccc(I)cc4c4n2[B@-]3(OCc2ccc3c(c2)OCCOCCOCCOCCOCCO3)n2c(c3cc(I)ccc3c2=N4)=N1	0.038 µM	0.33 nmol/mg	0.005 nmol/mg	569 nm	0.59	0.35 nanoseconds	80750 M⁻¹ cm⁻¹	Active	23.5 µM	578 nm	Active	356	568 nm	0.57	0.022	0.066 µM	1891	71.8 µM	0.022		Drug uptake [16]: Active
CCSc1ccc2c(c1)C1=Nc3c4ccc(SCC)cc4c4n3[B-]3(OCc5ccc6c(c5)OCCOCCOCCOCCOCCO6)n5c(c6cc(SCC)ccc6c5=N4)=NC2=[N+]13 (configuration not stated)	0.0023 µM	9.69 nmol/mg	2.66 nmol/mg	583 nm	0.72	1.77 nanoseconds	92080 M⁻¹ cm⁻¹		5.25 µM	594 nm	Active	1193	578 nm	0.57	0.21	0.0044 µM	6300	14.5 µM	0.2	1.92	Ratio EC50 [21]: 10; Ratio EC50 [23]: 182; Ratio EC50 [24]: 470; Drug uptake [25]: Active; Drug uptake [26]: Active
CCSc1ccc2c(c1)C1=Nc3c4ccc(SCC)cc4c4n3[B-]3(Oc5ccc(C[C@H](NC(=O)OC(C)(C)C)C(=O)OC)cc5)n5c(c6cc(SCC)ccc6c5=N4)=NC2=[N+]13 (some centres not stated)	4.77 µM	0.121 nmol/mg	0.033 nmol/mg	582 nm	0.7	1.69 nanoseconds	97450 M⁻¹ cm⁻¹	Active	> 100 µM	596 nm	Active	>22	581 nm	0.64	0.19	4.45 µM	>21	> 100 µM	0.2	2.63	Drug uptake [16]: Active
COC(=O)[C@H](Cc1ccc(O[B-]23n4c5c6c(F)c(F)c(F)c(F)c6c4N=c4c6c(F)c(F)c(F)c(F)c6c(n42)=NC2=[N+]3C(=N5)c3c(F)c(F)c(F)c(F)c32)cc1)NC(=O)OC(C)(C)C (some centres not stated)	66.2 µM			567 nm	0.19		27790 M⁻¹ cm⁻¹		65.7 µM	578 nm		1.03	568 nm	0.19	0.09	64 µM	>1.51	> 100 µM	0.09		
CC1(C)CCC(C)(C)c2cc3c(cc21)C1=Nc2c4cc5c(cc4c4n2[B-]2(Cl)n6c(c7cc8c(cc7c6=N4)C(C)(C)CCC8(C)C)=NC3=[N+]12)C(C)(C)CCC5(C)C (configuration not stated)										587 nm											Activity [27]: 575 nm; Activity [28]: 0.65; Activity [29]: 2.04 nanoseconds; Activity [30]: 0.18
Cl[B-]12n3c4c5ccc(I)cc5c3N=c3c5ccc(I)cc5c(n31)=NC1=[N+]2C(=N4)c2ccc(I)cc21 (configuration not stated)				569 nm	0.77	0.3 nanoseconds	65160 M⁻¹ cm⁻¹			581 nm			572 nm	0.7	0.03				0.03		
COC(=O)[C@@H](N)Cc1ccc(O[B-]23n4c5c6ccc(I)cc6c4N=c4c6ccc(I)cc6c(n42)=NC2=[N+]3C(=N5)c3ccc(I)cc32)cc1 (some centres not stated)	> 100 µM			569 nm	0.29	0.34 nanoseconds	37460 M⁻¹ cm⁻¹		> 100 µM	578 nm			568 nm	0.49	0.01	> 100 µM		> 100 µM	0.01	1.79	
Fc1c(F)c(F)c2c(c1F)C1=Nc3c4c(F)c(F)c(F)c(F)c4c4n3[B-]3(OCc5ccc6c(c5)OCCOCCOCCOCCOCCO6)n5c(c6c(F)c(F)c(F)c(F)c6c5=N4)=NC2=[N+]13 (configuration not stated)	16.3 µM			567 nm	0.056		81000 M⁻¹ cm⁻¹		6.78 µM	579 nm		1.06	568 nm	0.086	0.014	6.4 µM	1.16	18.9 µM	0.014		
c1ccc(O[B-]23n4c5c6ccccc6c4N=c4c6ccccc6c(n42)=NC2=[N+]3C(=N5)c3ccccc32)cc1 (configuration not stated)													563 nm								Activity [31]: 0.18
CCSc1ccc2c(c1)C1=Nc3c4ccc(SCC)cc4c4n3[B@-]3(Oc5ccc(C[C@H](N)C(=O)OC)cc5)n5c(c6cc(SCC)ccc6c5=N4)=NC2=[N+]13	0.22 µM	0.622 nmol/mg	0.367 nmol/mg	583 nm	0.5	1.71 nanoseconds	66510 M⁻¹ cm⁻¹	Active	68.8 µM	594 nm	Active	573	579 nm	0.49	0.17	0.12 µM	>455	> 100 µM	0.16	1.93	Drug uptake [16]: Active
COC(=O)[C@H](Cc1ccc(O[B@@-]23n4c5c6ccc(I)cc6c4N=c4c6ccc(I)cc6c(n42)=NC2=[N+]3C(=N5)c3ccc(I)cc32)cc1)NC(=O)OC(C)(C)C	11.8 µM			568 nm	0.86	0.3 nanoseconds	106120 M⁻¹ cm⁻¹	Active	> 50 µM	577 nm		>4	569 nm	0.64	0.03	12.2 µM	>4	> 50 µM	0.03	2.22	Drug uptake [16]: Active
